Test: xn = mol fraction of the nth substance listed, in the solute-free solvent

COc1cc2c(cc1OC)-c1cc3ccc(OC)c(OC)c3c[n+]1CC2.[Cl-] + O + CC(C)O
solubility (g/100 g solution)
Conditions	283.15 K	288.15 K	293.15 K	298.15 K	303.15 K	308.15 K	313.15 K	318.15 K	323.15 K	328.15 K
x2 = 0.2703	0.15	0.185	0.238	0.315	0.402	0.504	0.629	0.775	0.949	1.16
x2 = 0.4546	0.201	0.247	0.317	0.417	0.531	0.663	0.824	1.01	1.24	1.51
x2 = 0.5883	0.269	0.33	0.423	0.553	0.7	0.872	1.08	1.32	1.6	1.95
x2 = 0.6897	0.356	0.437	0.559	0.725	0.933	1.19	1.46	1.76	2.11	2.49
x2 = 0.7693	0.463	0.593	0.762	0.958	1.25	1.49	1.82	2.18	2.62	3.11
x2 = 0.8334	0.587	0.719	0.914	1.17	1.46	1.8	2.19	2.65	3.18	3.81
x2 = 0.8861	0.724	0.887	1.12	1.43	1.85	2.25	2.72	3.24	3.85	4.53
x2 = 0.9303	0.871	1.07	1.35	1.7	2.17	2.67	3.23	3.87	4.64	5.28
x2 = 0.9678	1.03	1.26	1.59	1.99	2.5	3.05	3.69	4.4	5.23	6.04

Cc1ncc(C[n+]2csc(CCO)c2C)c(N)n1.O=[N+]([O-])[O-] + O + CC(C)O
solubility (g/100 g solution)
Conditions	278.15 K	283.15 K	288.15 K	293.15 K	298.15 K	303.15 K	308.15 K	313.15 K
x2 = 0.3	0.0345	0.0413	0.051	0.06	0.0744	0.093	0.115	0.151
x2 = 0.4	0.0937	0.119	0.15	0.172	0.199	0.243	0.297	0.385
x2 = 0.5	0.228	0.257	0.305	0.372	0.453	0.573	0.715	0.897
x2 = 0.6	0.364	0.439	0.552	0.705	0.814	1.01	1.28	1.57
x2 = 0.7	0.637	0.765	0.916	1.12	1.38	1.71	2.11	2.61
x2 = 0.8	0.968	1.15	1.39	1.74	2.15	2.63	3.14	3.84
x2 = 0.9	1.18	1.47	1.83	2.33	2.85	3.48	4.26	5.2

COc1cc2c(cc1OC)-c1cc3ccc(OC)c(OC)c3c[n+]1CC2.[Cl-] + O + CC(O)CO
solubility (g/100 g solution)
Conditions	283.15 K	288.15 K	293.15 K	298.15 K	303.15 K	308.15 K	313.15 K	318.15 K	323.15 K	328.15 K
x2 = 0.3194	0.0156	0.0224	0.0316	0.0473	0.0678	0.0953	0.132	0.184	0.251	0.339
x2 = 0.5135	0.0475	0.0664	0.0917	0.133	0.186	0.256	0.347	0.47	0.626	0.826
x2 = 0.6441	0.104	0.142	0.193	0.274	0.376	0.505	0.672	0.891	1.17	1.51
x2 = 0.7379	0.183	0.245	0.329	0.457	0.614	0.811	1.06	1.38	1.78	2.26
x2 = 0.8085	0.279	0.368	0.512	0.702	0.905	1.16	1.5	1.92	2.41	3
x2 = 0.8636	0.395	0.513	0.673	0.9	1.21	1.57	1.97	2.46	3.04	3.73
x2 = 0.9079	0.537	0.688	0.893	1.17	1.55	1.96	2.44	3	3.69	4.46
x2 = 0.9441	0.72	0.971	1.23	1.57	1.95	2.41	2.97	3.63	4.39	5.26
x2 = 0.9744	0.947	1.18	1.5	1.9	2.41	2.97	3.61	4.32	5.17	6.09

CC(N)C(=O)O (stereo unspecified) + O + CCCO
solubility (g/100 g solution)
Conditions	x2 = 0.1	x2 = 0.2	x2 = 0.3	x2 = 0.4	x2 = 0.5	x2 = 0.6	x2 = 0.7	x2 = 0.8	x2 = 0.9
283.15 K	0.0276	0.0472	0.0784	0.143	0.358	0.635	1.29	2.39	4.58
293.15 K	0.0384	0.0536	0.0822	0.164	0.384	0.742	1.56	3.01	5.63
303.15 K	0.0461	0.0689	0.0947	0.202	0.439	0.892	1.89	3.69	6.82
313.15 K	0.0649	0.0791	0.109	0.224	0.504	1.12	2.27	4.41	8.24
323.15 K	0.0824	0.114	0.147	0.268	0.594	1.29	2.65	5.2	9.44

— the CheMixHub drug solubility set
